The values below come from patent US8716226B2, “3,5 phenyl-substituted beta amino acid derivatives as integrin antagonists” (Saint Louis University, priority 2012, dated 2014).

The target in one experiment is T1, αvβ5 (Homo sapiens, UniProt P06756+P18084).
T1 construct: expressed in transfected cells; host or cells: HEK 293 (293/b5)
Kind of experiment: 293/b5 cell adhesion assay for αvβ5 function. As to conditions: 293/b5 cells, adhesion to human vitronectin. It counts as cell-based. The procedure: 293/b5 Cell Adhesion Assay for αvβ5 Function.
(§1) Purified human vitronectin (Calbiochem/EMD Biosciences) diluted to 0.25 μg/ml in TS buffer (25 mM Tris 7.4, 150 mM NaCl) was added to wells (100 μl/well) of a 96-well microtiter plate (Immulon 2HB 96-well; VWR Scientific) and incubated overnight at 4° C. The solution in each well was then replaced with 200 μl of blocking buffer (TS with 1% bovine serum albumin), and the plate incubated for 1 hr at 37° C. Compounds were diluted in test tubes to 2× the peak testing concentration in cell adhesion buffer consisting of Hanks Buffered Salts Solution (HBSS, cation-free, Sigma), 0.1% bovine serum albumin, 25 mM HEPES, and 200 μM MnCl2. […] The cells were washed with the cell adhesion buffer, counted using a hemocytometer, centrifuged and resuspended in cell adhesion buffer at 3×10^6 cells/ml. […] Remaining attached cells were detected by addition of 100 μl/well p-nitrophenylphosphate (Sigma) solution (15 mg tablet dissolved in 25 ml 50 mM NaAcetate, pH5; 0.5% Triton-X-100), incubation for 30 min at 37° C., and then addition of 50 μl/well 1N NaOH to stop the enzyme reaction. Plates were read by colorimetric detection at 405 nm wavelength using a Tecan Safire II plate reader. Concentration-response curves were constructed by non-linear regression (best fit) analysis, and IC50 values were calculated for each compound. […]

The next experiment concerns the target T2, αvβ6 (Homo sapiens, UniProt P06756+P18564).
T2 construct: HT-29 cells (American Type Culture Collection, Manassas, Va.), which naturally express αvβ6; endogenous in cells; host or cells: HT-29 (human colon adenocarcinoma, ATCC)
Kind of experiment: HT-29 cell adhesion assay for αvβ6 function. It counts as cell-based. As to conditions: HT-29 cells, adhesion to human LAP. As to the method: HT-29 Cell Adhesion Assay for αvβ6 Function.
as §1, with “LAP protein (R&D Systems, Inc)” for “vitronectin (Calbiochem/EMD Biosciences)”, “0.2” for “0.25”, “4×10^6” for “3×10^6”

Experiment [1] has as its target T3, recombinant human biotinylated integrin αvβ8 (Homo sapiens, UniProt P06756+P26012).
T3 construct: biotin (biotinylated heterodimer); purchased R&D Systems
Kind of experiment: Solid phase receptor assay for αvβ8 function. To be noted: purified integrin binding to LAP-coated plate. As to the method:
Solid Phase Receptor Assay for αvβ8 Function.
Purified human LAP protein (R&D Systems, Inc) diluted to 0.5 μg/ml in TBS buffer (25 mM Tris 7.4, 137 mM NaCl, 2.7 mM KCl, 1 mM CaCl2, 1 mM MgCl2, 1 mM MnCl2) was added to wells (100 μl/well) of a 96-well half-well transparent microtiter plate (Costar 3690), and incubated overnight at 4° C. Wells were washed 3 times with 150 μl TBS, and 200 μl of blocking buffer (TBS with 1% bovine serum albumin) were added. The plate was incubated for 1 hr at 37° C., and then washed 3× with TBS/0.1% bovine serum albumin. Purified recombinant human biotinylated integrin αvβ8 (R&D Systems) was diluted to 0.1 μg/ml in TBS/0.1% bovine serum albumin. Compounds were diluted into the integrin solution and then 50 μl was added to empty wells of the washed LAP-coated plate, according to a standard template, with each sample repeated in triplicate. After incubation for one hour at room temperature, the plate was washed 3× with 150 μl of TBS/0.1% BSA. 50 μl of streptavidin-conjugated horseradish peroxidase (R&D Systems) was added to the wells, and the plate incubated for 20 min at room temperature. […] Plates were read by colorimetric detection at 650 nm wavelength using a Tecan Safire II plate reader. Concentration-response curves were constructed by non-linear regression (best fit) analysis, and IC50 values were calculated for each compound.

The pIC50 is the IC50 on a negative log10 scale, so that one unit is a factor of ten.

pIC50: −log10 of the molar value.

T3 sequence (P06756 31-889 limits assumed): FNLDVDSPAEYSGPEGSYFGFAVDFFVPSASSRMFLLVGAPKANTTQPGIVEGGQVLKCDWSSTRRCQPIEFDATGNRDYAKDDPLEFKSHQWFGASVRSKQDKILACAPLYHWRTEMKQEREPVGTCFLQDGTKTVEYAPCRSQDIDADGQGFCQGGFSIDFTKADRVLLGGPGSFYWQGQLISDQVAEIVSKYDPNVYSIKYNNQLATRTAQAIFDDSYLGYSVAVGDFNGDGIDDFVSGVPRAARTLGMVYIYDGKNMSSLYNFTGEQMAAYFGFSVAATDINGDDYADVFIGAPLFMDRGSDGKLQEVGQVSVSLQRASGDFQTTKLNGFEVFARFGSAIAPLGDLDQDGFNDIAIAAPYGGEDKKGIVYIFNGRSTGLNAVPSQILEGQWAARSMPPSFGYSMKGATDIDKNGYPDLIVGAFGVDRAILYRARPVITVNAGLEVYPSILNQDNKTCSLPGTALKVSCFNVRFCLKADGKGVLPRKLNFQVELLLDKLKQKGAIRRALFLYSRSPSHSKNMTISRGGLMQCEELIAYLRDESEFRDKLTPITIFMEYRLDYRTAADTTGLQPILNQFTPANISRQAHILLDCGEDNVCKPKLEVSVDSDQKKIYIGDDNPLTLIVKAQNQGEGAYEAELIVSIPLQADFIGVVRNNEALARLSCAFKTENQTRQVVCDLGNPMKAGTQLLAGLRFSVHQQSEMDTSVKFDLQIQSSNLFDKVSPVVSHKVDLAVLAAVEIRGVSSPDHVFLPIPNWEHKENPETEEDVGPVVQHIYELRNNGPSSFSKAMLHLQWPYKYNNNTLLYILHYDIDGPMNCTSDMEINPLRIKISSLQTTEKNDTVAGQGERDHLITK
T3 sequence (P06756 891-992 partner limits assumed): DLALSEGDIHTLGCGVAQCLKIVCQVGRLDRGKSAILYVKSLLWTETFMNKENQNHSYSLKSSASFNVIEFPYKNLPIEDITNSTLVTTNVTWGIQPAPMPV
T3 sequence (P26012 43-684 limits assumed): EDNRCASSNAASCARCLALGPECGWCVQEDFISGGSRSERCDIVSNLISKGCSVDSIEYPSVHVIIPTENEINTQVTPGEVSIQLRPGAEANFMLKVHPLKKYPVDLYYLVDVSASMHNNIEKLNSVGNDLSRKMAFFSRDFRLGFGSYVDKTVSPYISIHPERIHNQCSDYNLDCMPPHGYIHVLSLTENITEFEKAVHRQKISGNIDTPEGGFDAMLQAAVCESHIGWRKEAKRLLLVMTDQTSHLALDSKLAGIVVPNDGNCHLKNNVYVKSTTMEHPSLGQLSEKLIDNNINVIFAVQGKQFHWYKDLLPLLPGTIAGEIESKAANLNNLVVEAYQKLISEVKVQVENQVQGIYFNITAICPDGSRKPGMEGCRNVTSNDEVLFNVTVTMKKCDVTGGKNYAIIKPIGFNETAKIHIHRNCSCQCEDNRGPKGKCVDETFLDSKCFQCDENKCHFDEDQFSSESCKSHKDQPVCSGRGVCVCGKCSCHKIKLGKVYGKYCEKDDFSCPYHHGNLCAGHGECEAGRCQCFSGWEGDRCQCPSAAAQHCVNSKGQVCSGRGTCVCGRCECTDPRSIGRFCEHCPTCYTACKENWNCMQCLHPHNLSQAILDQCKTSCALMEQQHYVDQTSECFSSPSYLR
T2 sequence (P06756 31-889 limits assumed): as the sequence (P06756 31-889 limits assumed) above
T2 sequence (P06756 891-1048 partner limits assumed): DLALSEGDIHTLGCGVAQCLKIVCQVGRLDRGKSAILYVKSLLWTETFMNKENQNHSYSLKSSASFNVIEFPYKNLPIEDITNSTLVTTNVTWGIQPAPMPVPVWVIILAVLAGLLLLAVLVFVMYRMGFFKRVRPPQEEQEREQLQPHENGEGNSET
T2 sequence (P18564 22-788): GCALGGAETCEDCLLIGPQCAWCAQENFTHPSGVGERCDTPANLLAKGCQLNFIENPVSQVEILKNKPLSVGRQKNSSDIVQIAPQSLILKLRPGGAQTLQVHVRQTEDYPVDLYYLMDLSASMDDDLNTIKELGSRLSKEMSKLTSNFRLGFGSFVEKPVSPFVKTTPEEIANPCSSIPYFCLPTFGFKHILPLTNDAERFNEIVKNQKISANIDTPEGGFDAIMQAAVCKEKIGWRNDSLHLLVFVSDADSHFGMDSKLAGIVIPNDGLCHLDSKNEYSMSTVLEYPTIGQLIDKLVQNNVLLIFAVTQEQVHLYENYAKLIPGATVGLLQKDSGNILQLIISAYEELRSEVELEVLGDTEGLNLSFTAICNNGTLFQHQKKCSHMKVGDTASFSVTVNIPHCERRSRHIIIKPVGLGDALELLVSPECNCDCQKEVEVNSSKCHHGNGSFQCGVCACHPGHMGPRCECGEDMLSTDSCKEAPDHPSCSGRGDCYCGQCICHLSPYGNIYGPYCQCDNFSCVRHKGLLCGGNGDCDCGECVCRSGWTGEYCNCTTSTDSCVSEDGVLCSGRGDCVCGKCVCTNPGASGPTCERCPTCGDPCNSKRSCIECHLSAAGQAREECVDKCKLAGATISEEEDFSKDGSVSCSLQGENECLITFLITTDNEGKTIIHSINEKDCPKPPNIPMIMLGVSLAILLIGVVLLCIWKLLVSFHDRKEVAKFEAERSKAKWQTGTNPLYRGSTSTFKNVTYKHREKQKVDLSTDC
T1 sequence (P06756 31-889 limits assumed): as the sequence (P06756 31-889 limits assumed) above
T1 sequence (P06756 891-1048 partner limits assumed): as the sequence (P06756 891-1048 partner limits assumed) above
T1 sequence (P18084 24-799): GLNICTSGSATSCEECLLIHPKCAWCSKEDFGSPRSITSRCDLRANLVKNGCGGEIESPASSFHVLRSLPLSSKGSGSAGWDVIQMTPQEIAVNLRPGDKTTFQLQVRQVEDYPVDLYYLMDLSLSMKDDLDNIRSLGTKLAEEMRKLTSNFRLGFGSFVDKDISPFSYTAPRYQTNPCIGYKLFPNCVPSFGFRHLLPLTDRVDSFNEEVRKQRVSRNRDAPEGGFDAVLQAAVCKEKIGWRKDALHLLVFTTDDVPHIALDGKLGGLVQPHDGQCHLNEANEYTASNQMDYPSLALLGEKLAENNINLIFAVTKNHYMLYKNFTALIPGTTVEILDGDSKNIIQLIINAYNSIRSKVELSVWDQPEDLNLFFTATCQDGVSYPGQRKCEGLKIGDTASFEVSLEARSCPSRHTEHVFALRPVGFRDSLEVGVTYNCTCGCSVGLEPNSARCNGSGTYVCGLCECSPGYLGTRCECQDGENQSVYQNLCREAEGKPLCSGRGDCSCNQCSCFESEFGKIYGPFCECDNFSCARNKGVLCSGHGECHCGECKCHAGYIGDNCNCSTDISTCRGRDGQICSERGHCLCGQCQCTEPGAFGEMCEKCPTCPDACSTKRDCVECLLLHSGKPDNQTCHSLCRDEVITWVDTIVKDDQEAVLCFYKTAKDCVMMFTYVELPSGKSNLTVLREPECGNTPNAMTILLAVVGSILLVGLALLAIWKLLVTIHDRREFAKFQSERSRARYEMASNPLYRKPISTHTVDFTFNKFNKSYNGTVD

On to `CC(C)(C)c1cc(Br)cc([C@H](CC(=O)O)NC(=O)CNC(=O)c2cc(O)cc(NC3=NCC(O)CN3)c2)c1` (stereo partly drawn) [Example 1, (3S)—N-[3-hydroxy-5-[(1,4,5,6-tetrahydro-5-hydroxy-2-pyrimidinyl)amino]benzoyl]glycyl-3-(3-bromo-5-tert-butylphenyl)-β-alanine], for which the pIC50 at αvβ5 was 7.29; against αvβ6, 8.82; in experiment [1] it was 9.64.
